PMC5909177 (Bioconjugate Chemistry, 2018)

Assays:
Gal-3 [1] = settings: for Gal-3; cited from earlier work
Gal-1 = settings: for Gal-1; cited from earlier work
Gal-3 [2] = biological target: Gal-3 (Homo sapiens, UniProt P17931); experiment: competitive inhibition of Gal-3 binding to immobilized asialofetuin; settings: negative control
Chain of Gal-3 (Homo sapiens, UniProt P17931) (P17931 whole entry): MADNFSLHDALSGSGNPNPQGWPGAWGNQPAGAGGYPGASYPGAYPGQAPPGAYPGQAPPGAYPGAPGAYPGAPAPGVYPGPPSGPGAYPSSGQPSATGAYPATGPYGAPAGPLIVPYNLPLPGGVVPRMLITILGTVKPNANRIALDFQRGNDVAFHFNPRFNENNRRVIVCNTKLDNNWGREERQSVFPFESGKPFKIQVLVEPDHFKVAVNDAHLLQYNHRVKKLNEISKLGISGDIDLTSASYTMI

Compound | Kd (Gal-3 [1]) [µM] | Kd (Gal-1) [µM] | interference with Gal-3 binding to ASF (Gal-3 [2])
OC[C@H]1O[C@@H](S[C@@H]2O[C@H](CO)[C@H](O)[C@H](O)[C@H]2O)[C@H](O)[C@@H](O)[C@H]1O [TDG, thiodigalactoside] | 49 | 24 | 
CO[C@@H]1O[C@H](CO)[C@@H](O[C@@H]2O[C@H](CO)[C@H](O)[C@H](O)[C@H]2O)[C@H](O)[C@H]1NC(C)=O [methyl β-LacNAc] | 67 |  | 
CO[C@@H]1O[C@H](CO)[C@@H](O[C@@H]2O[C@H](CO)[C@H](O)[C@H](O)[C@H]2O)[C@H](O)[C@H]1O [methyl β-lactoside] | 220 | 190 | 
bovine serum albumin [Nonmodified BSA] |  |  | not interfering with Gal-3 binding to ASF
